One data set concerns U87 xenograft tumor. Kind of data set: U87 xenograft tumor model in nude mice. Format: in vivo. The conditions noted are these: for average tumor size: one month after tumor initiation, intraperitoneal injection twice a week for four weeks; for median survival probability: terminal point 1000 mm^3. The method, then:
Further, the anti-tumor efficacies of Fas ligand and Fasudil combination using a U87 xenograft tumor model in nude mice were evaluated. Fas ligand and Fasudil were administrated by intraperitoneal injection when the subcutaneous tumor grew to palpable size >50 mm^3 twice a week for four weeks. The mice were primed with either Fasudil or saline 24 hours before the injection of Fasudil and Fas ligand together. Only Fasudil, only Fas ligand, and only saline injections were made in the control groups. 7-10 mice with tumor volumes ranging from 50-200 mm^3 were randomly assigned to each treatment arm. Terminal point for the tumor growth was determined as 1000 mm^3.

For data set [1], the system named is surface Fas receptors of cancer cells (U87, A549, HepG2, PC3, and SUM159 cells). Description: Immunostaining of surface Fas receptors on cancer cells. Format: cell-based. The conditions noted are these: 2 hours; 40 μM Fasudil, 10 μM Blebbistatin or 20 μM GW5074; range over U87, A549, HepG2, PC3, SUM159. The method, then: (§1) FIGS. 2A-2E: Fas receptor expression on the cancer cell surface. FIG. 2A: Addition of either Fasudil, Blebbistatin, or GW5074 to the cell culture medium for 2 hours increased the Fas receptor staining on the cancer cells, but not on HUVECs. […] Fold increase of Fas staining density as response to treatment with FIG. 2C: Fasudil, FIG. 2D: Blebbisatin, and FIG. 2E: GW5074.
In the present study, the effect of the ROCK inhibitor Fasudil, Myosin-II inhibitor Blebbistatin, or the Raf-1 inhibitor GW5074 on Fas receptor translocation on surface of U87, A549, HepG2, PC3, and SUM159 cells was evaluated. The effect of these drugs on cell viability when used alone or in combination with exogenous, recombinant Fas ligand was analyzed. Next, the effects of Fasudil and Fas ligand combination on glioblastoma growth and on viability of non-cancerous cells in engineered brain organoids was investigated. Finally, the in vivo efficacy of the Fasudil-Fas ligand combination on preventing tumor growth in a xenograft U87 tumor model in nude mice was tested.
(§2) It was speculated that the active Raf-1, due to increased intracellular tension in cancer cell, can cause lack of Fas receptors on the cell surface and that either inhibition of Raf-1 or reduction of mechanical tension in the cytoskeleton can restore the Fas receptors on cell surface. To test this theory, U87 (glioblastoma), A549 (non-small cell lung cancer, resistant to apoptosis, FAS ligand alone increases proliferation), HepG2 (liver cancer), PC3 (prostate cancer), and SUM159 (triple negative breast cancer) cells were treated either with 20 μM Raf-1 inhibitor GW5074, 40 μM ROCK inhibitor Fasudil, or 10 μM myosin inhibitor Blebbistatin for 2 hours.

The subject of the next data set is Fas receptors on HUVECs. Kind of data set: Immunostaining of surface Fas receptors on HUVECs. Format: cell-based. The note with it: 2 hours; regardless of the treatment. The method, then:
as §1, §2

A further data set has as its system U87 cells. The data set is classed as cell-based. The note with it: for cell viability in U87 cells, drug combined with Fas ligand: Fas ligand 400 ng/mL with 40 μM Fasudil, 10 μM Blebbistatin or 20 μM GW5074. The source says: FIGS. 3A-3E: Fortified Fas-mediated apoptosis in cancer cells. […] FIG. 3B: representative light microscopy images of U87 cells showing the effect of Fasudil-Fas ligand combination. For the other cancer cell types see FIG. 7. Fasudil-Fas ligand combination decreased the viability of A549, HepG2, SUM159, PC3, and BT549 cells synergistically (FIGS. 3C-3D).
(§3) After showing that Fas receptor expression on the cell surface can be increased with different ques targeting cytoskeletal tension, the Fas-mediated apoptosis triggered by the exogenous Fas ligand when combined with Fasudil, Blebbistain, or GW5074 was studied. The cell viability by quantifying the ATP level present in the cell culture medium after 48 hours of treatment was assessed.

A further data set deals with BT549 cells. Format: cell-based. On the procedure:
as §3

A further data set has as its system SUM159 cells. The data set is classed as cell-based. On the procedure:
as §3

Another data set deals with HepG2 cells. Format: cell-based. On the procedure:
as §3

The test system of the next data set is A549 cells. The data set is classed as cell-based. The method, then:
as §3

For a further data set, the system named is PC3 cells. The data set is classed as cell-based. The method, then:
as §3

With `O=S(=O)(c1cccc2cnccc12)N1CCCNCC1` [Fasudil, fasudil], in the data set with U87 xenograft tumor, the average tumor size turned out to be 584.4±113.8 mm3 and the median survival probability stood at 28%. The “increase of immunostaining of surface Fas receptors of cancer cells” value (“increase” for short) in data set [1] is recorded as 2.12-3.28 folds. The “Fas staining of HUVECs” value with Fas receptors on HUVECs is reported as “negligible”. In addition, the “cell viability in U87 cells, drug combined with Fas ligand” value (shortened to “cell viability in U87 cells”) with U87 cells is on record as “decreased cell viability significantly”.

Regarding `Cc1ccc2c(c1)C(=O)C1(O)CCN(c3ccccc3)C1=N2` (stereo not shown) [Blebbistatin, blebbistatin], the “increase” value in [1] is given as 1.76-2.15 folds. Also, in the data set with Fas receptors on HUVECs, the “Fas staining of HUVECs” value is “negligible”. Further, the “cell viability in U87 cells” value with U87 cells is “decreased cell viability significantly”.

In the case of `O=C1Nc2ccc(I)cc2/C1=C/c1cc(Br)c(O)c(Br)c1` [GW5074], in data set [1], the “increase” value is reported as 1.62-2.30 folds. Also, the “Fas staining of HUVECs” value in the data set with Fas receptors on HUVECs is given as “negligible”. In the data set with U87 cells, the “cell viability in U87 cells” value is “decreased cell viability significantly”.

B1: Fas ligand: human recombinant Fas ligand, protein having the amino acid sequence SEQ ID NO: 1 (protein, listed as Homo sapiens)
chain: MQQPFNYPYPQIYWVDSSASSPWAPPGTVLPCPTSVPRRPGQRRPPPPPPPPPLPPPPPPPPLPPLPLPPLKKRGNHSTGLCLLVMFFMVLVALVGLGLGMFQLFHLQKELAELRESTSQMHTASSLEKQIGHPSPPPEKKELRKVAHLTGKSNSRSMPLEWEDTYGIVLLSGVKYKKGGLVINETGLYFVYSKVYFRGQSCNNLPLSHKVYMRNSKYPQDLVMMEGKMMSYCTTGQMWARSSYLGAVFNLTSADHLYVNVSELSLVNFEESQTFFGLYK
With B1, the average tumor size in the data set with U87 xenograft tumor is given as 602.2±195.7 mm3. The median survival probability with U87 xenograft tumor is recorded as 27%. Moreover, the cell viability in the data set on BT549 cells is listed as 58.0 % of the control; with SUM159 cells, 59.9 % of the control; in the data set on HepG2 cells, 44.6 % of the control; with A549 cells, 67.8 % of the control; with PC3 cells it was 80.2 % of the control; with U87 cells it was 55.6 % of the control.

The record behind these values is patent US20240350512A1, “CYTOSKELETAL TENSION REGULATORS AND FAS LIGAND-COMBINATION COMPOSITIONS AND METHODS OF TREATMENT USING THE SAME” (Yale University, priority 2021, published 2024).
